Assay results as given in patent US20100056520A1, “FORMULATIONS OF PHOSPHOLIPASE ENZYME INHIBITORS” (priority 2006, published 2010).
Values after ≈ are worked out from the molar mass of the structure shown.

Legend:
[1] = Solubility measured at room temperature in water, acid and basic conditions (HPLC); type: physicochemical
Description: The solubility of 4-(3-{5-chloro-1-(diphenylmethyl)-2-[2-({[2-(trifluoromethyl)benzyl]sulfonyl}amino)ethyl]-1H-indol-3-yl}propyl)benzoic acid was measured at room temperature in water, acid and basic conditions.
The solubility of 4-(3-{5-chloro-1-(diphenylmethyl)-2-[2-({[2-(trifluoromethoxy)benzyl]sulfonyl}amino)ethyl]-1H-indol-3-yl}propyl)benzoic acid was measured at room temperature in water, acid and basic conditions.
The solubility of 4-(3-{5-chloro-1-(diphenylmethyl)-2-[2-({[2-fluoro-6-(trifluoromethyl)benzyl]sulfonyl}amino)ethyl]-1H-indol-3-yl}propyl)benzoic acid was measured at room temperature in water, acid and basic conditions.

[2] = test system: carrageenan-induced paw edema; assay: Rat carrageenan-induced paw edema (CPE) study; type: in vivo
Description: Data from a rat carrageenan-induced paw edema (CPE) study indicated the minimum efficacious exposure of 4-(3-{5-chloro-1-(diphenylmethyl)-2-[2-({[2-(trifluoromethyl)benzyl]sulfonyl}amino)ethyl]-1H-indol-3-yl}propyl)benzoic acid was 1360 ng*hr/ml.

[3] = Solubility in 2% Tween 80/0.5% methylcellulose vehicle; type: physicochemical; conditions: for solubility: 2% Tween 80/0.5% methylcellulose vehicle, aqueous with cosolvent or surfactant or cyclodextrin, read-out: solubility in 2% Tween 80/0.5% methylcellulose (MC) vehicle
Description: (§1) Based on the animal data and solubility in pharmaceutical acceptable excipients, formulation development for first in human studies was undertaken based on this formulation.

[4] = Rat oral absorption/bioavailability after single oral dose of 25 mg/kg; type: in vivo, rats; conditions: for oral exposure with addition of 2% Tween 80: 2% Tween 80/0.5% MC vehicle; for bioavailability: rat, in vivo, rats, read-out: estimated bioavailability; for bioavailability / oral absorption in rats: single oral dose of 25 mg/kg in 2% Tween/0.5% MC
Description: as §1

ApoE Mice = assay: Minimum efficacious exposure in ApoE mice; type: in vivo

Compound O=C(O)c1ccc(CCCc2c(CCNS(=O)(=O)Cc3ccccc3C(F)(F)F)n(C(c3ccccc3)c3ccccc3)c3ccc(Cl)cc23)cc1 [4-(3-{5-chloro-1-(diphenylmethyl)-2-[2-({[2-(trifluoromethyl)benzyl]sulfonyl}amino)ethyl]-1H-indol-3-yl}propyl)benzoic acid] has a solubility ([1]; aqueous solution (water, acid and basic conditions), aqueous buffer, below the HPLC detection limit, read-out: intrinsic solubility of the free acid) of under 0.031 µg/mL, a solubility ([1]; aqueous solution (water, acid and basic conditions), aqueous buffer, read-out: solubility of the anion) of 0.11 µg/mL (≈ 0.148 µM) and a minimum efficacious exposure [2] of 1360 ng·h/mL.
With O=C(O)c1ccc(CCCc2c(CCNS(=O)(=O)Cc3ccccc3OC(F)(F)F)n(C(c3ccccc3)c3ccccc3)c3ccc(Cl)cc23)cc1 [4-(3-{5-chloro-1-(diphenylmethyl)-2-[2-({[2-(trifluoromethoxy)benzyl]sulfonyl}amino)ethyl]-1H-indol-3-yl}propyl)benzoic acid] the solubility ([1]; water, acid and basic conditions, water, acid and basic conditions, below the HPLC detection limit, read-out: intrinsic solubility in all conditions) was under 0.0212 µg/mL, the “solubility enhancement by addition of 2% Tween 80” value [3] was 23.490 fold and the “solubility in 2% Tween 80/0.5% methylcellulose (MC) vehicle” value [3] was 498 µg/mL (≈ 654 µM). The solubility [3] was 496 µg/mL (≈ 652 µM), the “oral exposure with addition of 2% Tween 80” value [4] was “did not afford adequate oral exposure” and the bioavailability [4] was about 1.8%. For the same compound, the “oral absorption in rats” value [4] was “relatively low” and the minimum efficacious exposure (ApoE Mice) was 2800 ng·h/mL.
For O=C(O)c1ccc(CCCc2c(CCNS(=O)(=O)Cc3c(F)cccc3C(F)(F)F)n(C(c3ccccc3)c3ccccc3)c3ccc(Cl)cc23)cc1 [4-(3-{5-chloro-1-(diphenylmethyl)-2-[2-({[2-fluoro-6-(trifluoromethyl)benzyl]sulfonyl}amino)ethyl]-1H-indol-3-yl}propyl)benzoic acid], the solubility ([1]; water, acid and basic conditions, aqueous buffer, below the HPLC detection limit, read-out: intrinsic solubility over the pH range of 1 to 11) was under 0.1 µg/mL, the solubility [3] was 115 µg/mL (≈ 151 µM) and the “oral exposure with addition of 2% Tween 80” value [4] was “did not afford adequate oral exposure”. The bioavailability [4] was under 1% and the “oral absorption in rats” value [4] was “relatively low”.
